What all share (format): cell-based, human
The subject of assay [1] is galectin-7. The experiment in a line: Galectin-7 expression in keratinocytes (real-time PCR, immunoblot). Conditions: for galectin-7 mRNA and protein expression: 24 hours, methylprednisolone 10.6 μM, tobramycin 8.6 μM, fluvastatin 9.2 μM, pempidine 13 μM; for galectin-7 expression: keratinocytes, other statin drugs, data not shown; for galectin-7 protein expression: treated with cytokines for 2 days, immunoblot. The method, then:
Human keratinocyte cell line HaCaT was maintained at 37° C. in Dulbecco's modified Eagle's medium (DMEM) supplemented with 10% of fetal bovine serum (FBS), 2 mM glutamine, 100 U/ml penicillin and 100 μg/ml streptomycin. Short hairpin RNA (shRNA) reagents were obtained from the National RNAi Core Facility located at the Institute of Molecular Biology and Genomic Research Center, Academia Sinica, supported by the National Core Facility Program for Biotechnology Grants of NSC. Four shRNAs with clone IDs of TRCN0000057393, TRCN0000057394, TRCN0000057395, and TRCN0000057396 were used to generate stable galectin-7 knockdown HaCaT clones. HaCaT cells were infected with one of the four shRNA-expressing lentiviruses and puromycin was employed to select stable cell clones after 3 days of infection. After puromycin selection, four individual pooled clones were cultured in puromycin-free medium for 2 weeks before further analysis.
Primary neonatal human epithelial keratinocytes, HEKn cells, were purchased from Gibco. HEKn cells were cultured at 37° C. in keratinocyte serum-free medium (K-SFM) supplemented with 30 μg/ml bovine pituitary extract and 5 ng/ml recombinant human epidermal growth factor from the same company. Compared with HaCaT cells, HEKn cells have a limited proliferation ability and are not suitable for establishing shRNA-based stable knockdown cells; therefore, a small interfering RNA (siRNA) oligo was used to transiently knock down the expression of galectin-7. The Silencer® Select siRNAs were purchased from Invitrogen, including negative control #1 and a predesigned siRNA targeting human galectin-7 (Catalog number: s230574, which targets the sequence of exon 3 of NM_002307.3). Thirty picomoles of siRNAs were delivered into HEKn cells in a 6-well plate setup by means of Lipofectamine 2000.
Cells were harvested and lysed in RIPA lysis buffer containing 1% of Triton X-100 and a protease inhibitor cocktail, and total protein concentrations were measured with a protein assay kit. Proteins in the samples of the lysates with the same amounts of total protein were separated by sodium dodecyl sulfate polyacrylamide gel electrophoresis (SDS-PAGE) and analyzed by immunoblotting. Primary antibodies against phospho-Erk1 (pT202)/Erk2 (pT185), Erk1, Erk2, NF-κB p65, phospho-NF-κB p65 (pS536), IκBα, phospho-IκBα pS32, β-actin, or GAPDH were applied to detect the corresponding proteins. Horseradish peroxidase (HRP)-conjugated secondary antibodies against mouse, rabbit, or goat IgG were then incubated with the membranes, and proteins were visualized by chemiluminescence according to the manufacturer's instructions. Protein quantification was performed by software.
Total RNAs (including mRNA and miRNA) were extracted from cultured cells or mouse ears with the TRIzol Reagent. For measurement of human galectin-7, IL-6, IL-8, IL-17A, and IFN-γ levels, mRNAs were reverse-transcribed into cDNA by means of the cDNA synthesis kit, and real-time PCR was carried out with specific probes accompanied with primers targeting humangalectin-7, IL-6, and IL-8 according to the manufacturer's instructions.
For orientation: Quantitative PCR measures a nucleic acid by following its amplification.

A further assay has as its system S100A7. The experiment in a line: S100A7 mRNA expression in HaCaT cells (real-time PCR). Particulars: 24 hours, methylprednisolone 10.6 μM, tobramycin 8.6 μM, fluvastatin 9.2 μM, pempidine 13 μM.
In assay [2] the test system is galectin-7. Put plainly: Galectin-7 mRNA in lung cancer cell lines (qPCR). Conditions: CL100 and PC9-IR cells, 24 hours; methylprednisolone 10.6 μM, tobramycin 8.6 μM, fluvastatin 9.2 μM, pempidine 13 μM. As to the method: (§1) CL83, CL141, CL100, CL25, PC9, PC9-IR, CL97, H1975, and H3255 cells were obtained from Dr. Pan-Chyr Yang (National Taiwan University, Taiwan), and A-431 (ATCC© CRL-1555™), H1650 ((ATCC© CRL-5883™)) and HCC827 ((ATCC© CRL-2868™)) cells were purchased from ATCC. Cells were cultured in RPMI 1640 medium supplemented with 10% fetal bovine serum (Gibco). The mRNA of A549, H23, H226BR, H358, H460, H661, H928, H1299, H1435, and H1437 cells were produced by conventional method, such as the method as described herein.
Total RNA from each lung cancer cell clone was extracted using TRIzol Reagent (Invitrogen), and cDNA for real-time PCR was generated using the iScript cDNA synthesis kit (Bio-Rad). Quantitative real-time PCR was performed using TaqMan buffer (Roche), and the primers and probes were designed using the Roche Universal Library (UPL). […] For real-time PCR, the CFX Connect Real-Time PCR System (Bio-Rad) was used, and the data were analyzed using CFX Manager software, in which the ΔΔCt method was employed to normalize the data against the endogenous control GAPDH.

The subject of assay [3] is galectin-7. Put plainly: Galectin-7 protein in lung cancer cells (immunoblot). Particulars: for effect on fluvastatin-induced galectin-7 upregulation: co-administered with fluvastatin, 200 μM Mevalonate, 20 μM GGPP, 20 μM FPP. As to the method: as §1
Lysates from different lung cancer cell samples were prepared and aliquots containing 30 μg of protein from each lysate were analyzed using either 10% or 12% sodium dodecyl sulfate-polyacrylamide gel electrophoresis (SDS-PAGE). A polyvinylidene difluoride Immobilon H-bond membrane (EMD Millipore) was used for immunoblot analysis. The primary antibody against galectin-7 (Novagen) was used.
(Immunoblotting shows a protein as a band on a membrane.)

The test system of another assay is IL-6. Put plainly: IL-6 production by keratinocytes (ELISA). Conditions: for IL-6 production: HaCaT and HEKn cells subjected to immune stimuli, ELISA; for IL-6 production induced by IL-17A: galectin-7 knockdown keratinocytes, data not shown. As to the method: (§2) To measure the concentrations of proinflammatory cytokines secreted by keratinocytes, 2×10^4 cells were seeded in 96-well plates. Cells were incubated for 24 hours and then treated with 50 μg/ml LPS, 100 ng/ml human TNF-α, 100 or 200 ng/ml human IL-17A, 200 ng/ml human IL-22, 100 ng/ml human IL-23, or 50 ng/ml IFN-γ at 37° C. for 48 hours. In addition, the MEK inhibitor PD98059 was added along with stimulation by LPS or IL-17A (48 hours). The supernatants were then collected and analyzed by ELISAs, which were performed using a specific combination of paired antibodies (capture and detection antibodies).
Background: ELISA stands for enzyme-linked immunosorbent assay.

The subject of another assay is IL-8. Put plainly: IL-8 production by keratinocytes (ELISA). Particulars: for IL-8 production: HaCaT and HEKn cells subjected to immune stimuli, ELISA; for IL-8 production induced by IL-17A: galectin-7 knockdown keratinocytes, data not shown. The method, then: as §2
In a further assay the test system is miR-146a. Put plainly: miR-146a expression in keratinocytes (real-time PCR). Particulars: HaCaT and HEKn cells treated with IL-17A. The method, then: For miR-146a quantification, total RNA samples were converted to cDNA, and real-time PCR was conducted with specific primers targeting miR-146a. Human GAPDH and U6 snRNA were selected as internal controls for normalization of the levels of mRNAs and miRNAs, respectively. Relative levels of mRNAs and miRNAs were calculated, and fold changes were obtained by the ΔΔCt method and compared with vector-only control cells.

With `CN1C(C)(C)CCCC1(C)C` [pempidine], the “galectin-7 mRNA and protein expression” value with galectin-7 [1] (HaCaT cells) was “only fluvastatin induced”. Also, the “S100A7 mRNA expression” value with S100A7 is reported as “only fluvastatin”. Moreover, the “galectin-7 expression (LGLAS7 mRNA)” value in the assay with galectin-7 [2] was “only fluvastatin induced”.
For `O=C(O)C[C@H](O)C[C@H](O)/C=C/c1c(C2CC2)nc2ccccc2c1-c1ccc(F)cc1` [pitavastatin], the galectin-7 expression entry with galectin-7 [1] is “induced galectin-7 expression”.
Consider `COc1cc2ncnc(Nc3ccc(F)c(Cl)c3)c2cc1OCCCN1CCOCC1` [gefitinib], for which the “galectin-7 level (endogenous)” value in the assay with galectin-7 [3] (CL25 and CL100 cells, 10 μM, 24 hours) is on record as “downregulated”. Moreover, the “level of ectopically overexpressed galectin-7” value in the assay with galectin-7 [3] (CL83, CL141 and PC9 cells, 10 μM, 24 hours) was “also downregulated”.
With IL-21: immune stimulus, the IL-6 production entry in the assay on IL-6 was “only IL-17A (FIG. 2), TNF-α, and LPS (data not shown) induced”. Also, in the assay on IL-8, the IL-8 production entry is “only IL-17A (FIG. 2), TNF-α, and LPS (data not shown) induced”.
On to `CC(C)=CCC/C(C)=C/CC/C(C)=C/COP(=O)(O)OP(=O)(O)O` [FPP], for which the “effect on fluvastatin-induced galectin-7 upregulation” value in the assay with galectin-7 [3] (PC9-IR cells, 24 hours) was “blocked”.
Take `COc1cccc(-c2cc(=O)c3ccccc3o2)c1N` [PD98059]: the “IL-6 production induced by IL-17A” value in the assay with IL-6 is given as “significantly blocked”. Also, the “IL-8 production induced by IL-17A” value with IL-8 is recorded as “significantly blocked”.
Consider `CC(O)(CCO)CC(=O)O` (stereo not drawn) [mevalonate], for which the “effect on statin-induced upregulation of galectin-7” value with galectin-7 [3] (PC9-IR cells, 200 μM mevalonate with 10 μM statins, 24 hours) was “reversed”. Moreover, in the assay with galectin-7 [3] (PC9-IR cells, 24 hours), the “effect on fluvastatin-induced galectin-7 upregulation” value was “reversed”.
Regarding “IFN-γ: interferon (IFN)-γ, immune stimulus”, in the assay with galectin-7 [1] (HaCaT cells), the galectin-7 protein expression result is “modest effects”. In the assay with IL-6, the IL-6 production entry was “only IL-17A (FIG. 2), TNF-α, and LPS (data not shown) induced”. Moreover, the IL-8 production result with IL-8 is “only IL-17A (FIG. 2), TNF-α, and LPS (data not shown) induced”.
Consider `CC(C)=CCC/C(C)=C/CC/C(C)=C/CC/C(C)=C/COP(=O)(O)OP(=O)(O)O` [GGPP], for which the “effect on fluvastatin-induced galectin-7 upregulation” value in the assay with galectin-7 [3] (PC9-IR cells, 24 hours) is given as “blocked”.
On to “epidermal growth factor (EGF): epidermal growth factor, activates EGFR signaling”, for which, in the assay on galectin-7 [3] (CL25, CL100, PC9 and PC9-IR cells starved overnight, 10 ng/ml EGF), the galectin-7 expression result is listed as “transiently upregulated”.
In the case of `CC(C)c1c(C(=O)Nc2ccccc2)c(-c2ccccc2)c(-c2ccc(F)cc2)n1CC[C@@H](O)C[C@@H](O)CC(=O)O` [atorvastatin], in the assay with galectin-7 [1], the galectin-7 expression entry was “induced galectin-7 expression”.
Take TNF-α: in the assay with galectin-7 [1] (HaCaT cells), the galectin-7 protein expression entry is “significantly reduced”. Moreover, the IL-6 production result with IL-6 is listed as “induced”. In addition, the IL-8 production entry in the assay with IL-8 is listed as “induced”.
For `S=C(S)N1CCCC1` [PDTC], the “IL-6 production induced by IL-17A” value in the assay on IL-6 was “not blocked”. Also, the “IL-8 production induced by IL-17A” value with IL-8 is “not blocked”.
In the case of `CC[C@H](C)C(=O)O[C@H]1CCC=C2C=C[C@H](C)[C@H](CC[C@@H]3C[C@@H](O)CC(=O)O3)[C@H]21` [mevastatin], in the assay on galectin-7 [1], the galectin-7 expression result was “induced galectin-7 expression”.
With `NC[C@H]1O[C@H](O[C@H]2[C@H](O)[C@@H](O[C@H]3O[C@H](CO)[C@@H](O)[C@H](N)[C@H]3O)[C@H](N)C[C@@H]2N)[C@H](N)C[C@@H]1O` [tobramycin], the “galectin-7 mRNA and protein expression” value with galectin-7 [1] (HaCaT cells) was “only fluvastatin induced”. For the same compound, the “S100A7 mRNA expression” value in the assay on S100A7 is “only fluvastatin”. Further, the “galectin-7 expression (LGLAS7 mRNA)” value in the assay with galectin-7 [2] was “only fluvastatin induced”.
Take `C[S+]([O-])c1ccc(-c2nc(-c3ccncc3)c(-c3ccc(F)cc3)[nH]2)cc1` (stereo not drawn) [SB203580]: in the assay on IL-6, the “IL-6 production induced by IL-17A” value is reported as “not blocked”. Besides, in the assay on IL-8, the “IL-8 production induced by IL-17A” value was “not blocked”.
In the case of “IL-17A: cytokine known to promote psoriatic inflammation”, the galectin-7 protein expression result with galectin-7 [1] (HEKn cells) and in the assay on galectin-7 [1] (HaCaT cells) was “reduced” in each case. Besides, the IL-6 production entry with IL-6 is “induced”. Moreover, the IL-8 production result in the assay with IL-8 is listed as “induced”. For the same compound, in the assay with miR-146a, the miR-146a expression result was “induced miR-146a expression”.
`CC(C)=CCCC(C)=CCCC(C)=CCSc1ccccc1C(=O)O` [FTS, farnesyl thiosalicylic acid]: the galectin-7 expression result in the assay on galectin-7 [3] (PC9-IR cells, 1 μM fluvastatin, FTS, 24 hours) is recorded as “increased galectin-7 expression”.

(Values after US11286304B2, “Anti-galectin-7 antibody, kit comprising the same, and uses thereof” (Academia Sinica, priority 2018, dated 2022).)
